Experiment [1] concerns Candida albicans. Nature of the experiment: Antifungal activity against Candida albicans by disc diffusion method. Type of experiment: functional.
Experiment [2] deals with Bacillus subtilis. Nature of the experiment: Antibacterial activity against Bacillus subtilis MTCC 121 incubated for 24 hrs by filter paper disc method. Type of experiment: functional.
Experiment [3] has as its system Staphylococcus aureus. Nature of the experiment: Antibacterial activity against Staphylococcus aureus MSSA 22 incubated for 24 hrs by filter paper disc method. Type of experiment: functional.
A further experiment concerns Pseudomonas aeruginosa. Description: Antibacterial activity against Pseudomonas aeruginosa incubated for 24 hrs by filter paper disc method. Type of experiment: functional.
Experiment [4] has as its system Escherichia coli. Nature of the experiment: Antibacterial activity against Escherichia coli K-12 incubated for 24 hrs by filter paper disc method. Type of experiment: functional.
Experiment [5] deals with Candida albicans. Nature of the experiment: Antifungal activity against Candida albicans IOA-109 at 50 ug/disc incubated for 5 to 6 days by disc diffusion method. Type of experiment: functional. The settings on record: read-out: DIZ.
Experiment [6] has as its system Candida albicans. Description: Antifungal activity against Candida albicans IOA-109. Type of experiment: functional.
Another experiment deals with Klebsiella pneumoniae. Description: Antibacterial activity against Klebsiella pneumoniae incubated for 24 hrs by filter paper disc method. Type of experiment: functional.
Experiment [7] has as its system Candida albicans. Description: Antifungal activity against Candida albicans IOA-109 incubated for 18 to 48 hrs. Type of experiment: functional.
Another experiment deals with Hep 3B2. Description: Cytotoxicity in human Hep3B cells incubated for 48 hrs by MTT assay. Type of experiment: functional, cell-based.
The next experiment concerns HeLa. Nature of the experiment: Cytotoxicity in human HeLa cells incubated for 48 hrs by MTT assay. Type of experiment: functional, cell-based.
The next experiment deals with MCF7. Description: Cytotoxicity in human MCF7 cells incubated for 48 hrs by MTT assay. Type of experiment: functional, cell-based. The note with it: MCF7, 48 h.
A further experiment deals with A549. Nature of the experiment: Cytotoxicity in human A549 cells by SRB assay. Type of experiment: functional. The note with it: read-out: TC50 (the source's name).
For experiment [8], the system named is Mycobacterium tuberculosis. Description: Antimycobacterial activity against Mycobacterium tuberculosis MDR-TB. Type of experiment: functional.
The subject of experiment [9] is Mycobacterium tuberculosis. Description: Antimycobacterial activity against Mycobacterium tuberculosis XDR-TB. Type of experiment: functional.
Experiment [10] deals with Bacillus subtilis. Nature of the experiment: Antibacterial activity against Bacillus subtilis ATCC 6051 by disc diffusion method. Type of experiment: functional.
Experiment [11] has as its system Staphylococcus aureus. Nature of the experiment: Antibacterial activity against Staphylococcus aureus MSSA 22 by disc diffusion method. Type of experiment: functional.
For a further experiment, the system named is Salmonella typhimurium. Nature of the experiment: Antibacterial activity against Salmonella typhimurium MTCC98 by disc diffusion method. Type of experiment: functional, Salmonella enterica subsp. enterica serovar Typhimurium.
Experiment [12] deals with Escherichia coli. Description: Antibacterial activity against Escherichia coli K-12 by disc diffusion method. Type of experiment: functional.
Experiment [13] concerns Mycobacterium tuberculosis. Description: Antimycobacterial activity against Mycobacterium tuberculosis H37Rv assessed as reduction in mycobacterial growth incubated for 5 days by MTT assay. Type of experiment: functional. The note with it: 120 h.
Another experiment deals with Mycobacterium avium. Nature of the experiment: Antimycobacterial activity against Mycobacterium avium. Type of experiment: functional.
Experiment [14] has as its system Staphylococcus aureus. Nature of the experiment: Antibacterial activity against Staphylococcus aureus at 50 ug/disc incubated for 18 hrs by disc diffusion method. The settings on record: read-out: DIZ. Type of experiment: functional.
In another experiment the test system is Plasmodium falciparum. Description: Antimalarial activity against Plasmodium falciparum infected in erythrocytes assessed as inhibition of increase in parasite density after 72 hrs. Type of experiment: functional, organism-based.

In brackets after ≈: the same amount, converted by molar mass.

As for `CCCCCCCCCCCCCCCc1ccc(CCCCCCCCCCCCCCC)o1`, the “diameter of the inhibition zone (DIZ)” value in the experiment on Candida albicans [1] amounted to 27 mm.
`CCCCCCC(O)C/C=C\CCCCCCC(=O)N1N=C(C)CC1=O` (configuration not stated): the “diameter of the inhibition zone (DIZ)” value with Bacillus subtilis [2], in the experiment on Staphylococcus aureus [3], in the experiment on Pseudomonas aeruginosa and in the experiment with Escherichia coli [4] was 10 - 18 mm each time.
Take `CCCCCCC/C=C\CC(O)CCCCCCC(=O)n1[nH]c(=O)c2ccccc2c1=O` (configuration not stated): the “diameter of the inhibition zone (DIZ)” value was 10 - 18 mm with Bacillus subtilis [2], 10 - 18 mm in the experiment with Staphylococcus aureus [3], 10 - 18 mm in the experiment with Pseudomonas aeruginosa and 15 - 18 mm with Escherichia coli [4].
With `CCCCCCCC/C=C\C(O)CCCCCCC(=O)n1nnc2ccccc21` (configuration not stated), in the experiment with Candida albicans [5], the zone of inhibition at 50 µg/disc fell in the range of 16 to 20 mm.
`CCCCCCCC/C=C\CCCCCCCc1nc2ccccc2s1`: in the experiment with Candida albicans [6], the “diameter of the inhibition zone (DIZ)” value was 16 - 20 mm.
`CCCCCCCC(O)CC/C=C\CCCCC(=O)n1[nH]c(=O)c2ccccc2c1=O` (configuration not stated): the “diameter of the inhibition zone (DIZ)” value in the experiment with Bacillus subtilis [2] is on record as 10 - 18 mm; in the experiment with Staphylococcus aureus [3], 10 - 18 mm; in the experiment on Pseudomonas aeruginosa it was 10 - 18 mm; in the experiment on Escherichia coli [4] it was 15 - 18 mm.
For the compound `CCCCCCCC(O)CC/C=C\CCCCCC(=O)n1nnc2ccccc21` (configuration not stated), in the experiment with Candida albicans [5], the zone of inhibition at 50 µg/disc was 16 to 20 mm.
On to `CCCCCCC(O)C/C=C\CCCCCCc1nc2ccccc2c(=O)o1` (configuration not stated), for which the “diameter of the inhibition zone (DIZ)” value is 15 - 19 mm with Klebsiella pneumoniae; 15 - 19 mm in the experiment on Bacillus subtilis [2]; 15 - 19 mm in the experiment with Staphylococcus aureus [3]; 15 - 19 mm with Escherichia coli [4]; 17 - 20 mm in the experiment with Candida albicans [7].
For the compound `C=CCCCCCCCCc1n[nH]c(=S)o1`, the IC50 in the experiment with Hep 3B2 came to 8.94 µM.
Regarding `CCCC/C=C\CCC(O)CCCCCCC1=NNC2SCC(c3ccccc3)=NN12` (configuration not stated), the IC50 in the experiment on HeLa was 6 µM; with MCF7, 8.8 µM; in the experiment with Hep 3B2 it was 7.36 µM.
For the compound `CCCCC/C=C\CCC(O)CCCCCCCC(=O)N1N=C(C)CC1=O` (configuration not stated), the “diameter of the inhibition zone (DIZ)” value in the experiment with Bacillus subtilis [2], in the experiment on Staphylococcus aureus [3], in the experiment on Pseudomonas aeruginosa and in the experiment with Escherichia coli [4] was 10 - 18 mm throughout.
With `CCCCCCC(O)C/C=C\CCCCCCCC1=NNC2SCC(c3ccccc3)=NN12` (configuration not stated), the IC50 with HeLa turned out to be 8.83 µM; with MCF7, 8.59 µM; in the experiment with Hep 3B2, 6.5 µM.
As for `CCCCCCCCCCCCCCCCCc1nnc(S)n1N`, in the experiment with A549, the CC50 amounted to 0.282 µM.
For `CCCCCCCCNc1cncc(C(=O)Nc2ccccc2)n1`, the MIC in experiment [8] and in experiment [9] was 16 to 32 µM (≈ 5.22 to 10.4 µg/mL) each time.
For the compound `C=CCCCCCCCCc1nc2ccccc2s1`, the “diameter of the inhibition zone (DIZ)” value in the experiment with Candida albicans [6] is on record as 16 - 20 mm.
In the experiment on Hep 3B2, `C=CCCCCCCCCc1n[nH]c(=S)n1N` returned an IC50 of 9.2 µM.
With `CCCCCCC(O)C/C=C\CCCCCCC(=O)Nn1c(C)ccc1C` (configuration not stated), the “diameter of the inhibition zone (DIZ)” value with Klebsiella pneumoniae is reported as 15 - 19 mm; with Bacillus subtilis [2] it was 15 - 19 mm; in the experiment with Staphylococcus aureus [3], 15 - 19 mm; in the experiment on Escherichia coli [4] it was 15 - 19 mm; with Candida albicans [7], 17 - 20 mm.
On to `CC/C=C\C/C=C\C/C=C\CCCCCCCc1nnc(S)o1`, for which, in the experiment with A549, the CC50 was 0.149 µM.
In the case of `CCCCCCCCCCCCCCCCCc1nnc(S)o1`, the CC50 with A549 was determined as 0.143 µM.
Turning to `C=CCCCCCCCCc1nnc(N)o1`, the “diameter of the inhibition zone (DIZ)” value with Bacillus subtilis [10], in the experiment with Staphylococcus aureus [11], with Salmonella typhimurium and with Escherichia coli [12] was 7 - 13 mm each time.
Take `CCCCC/C=C\CCC(O)CCCCCCCc1nc2ccccc2c(=O)o1` (configuration not stated): the “diameter of the inhibition zone (DIZ)” value in the experiment on Klebsiella pneumoniae is on record as 15 - 19 mm; in the experiment with Bacillus subtilis [2] it was 15 - 19 mm; with Staphylococcus aureus [3] it was 15 - 19 mm; in the experiment with Escherichia coli [4], 15 - 19 mm; in the experiment with Candida albicans [7] it was 17 - 20 mm.
Take `CC/C=C\C/C=C\C/C=C\CCCCCCCc1nnc(S)n1N`: the CC50 in the experiment on A549 is 0.264 µM.
With `CCCCCCCCc1cn(CC(=O)OCC)nn1`, the MIC (in [13]; in the experiment on Mycobacterium avium) was 0.5 µg/mL (≈ 1.87 µM) throughout.
Take `CCCCCCC(O)C/C=C\CCCCCCCc1nnc(N)o1` (configuration not stated): the “diameter of the inhibition zone (DIZ)” value in the experiment with Bacillus subtilis [10], with Staphylococcus aureus [11], in the experiment on Salmonella typhimurium and in the experiment with Escherichia coli [12] was 13 - 18 mm each time.
For `CCCCCCCCCCCCCCCc1nc2ccccc2s1`, the “diameter of the inhibition zone (DIZ)” value in the experiment with Candida albicans [6] was 16 - 20 mm.
For `CCCCCCCC/C=C\CCCCCCCC(=O)n1nnc2ccccc21`, the zone of inhibition at 50 µg/disc in the experiment on Staphylococcus aureus [14] and in the experiment with Candida albicans [5] was 13 to 15 mm throughout.
With `C=C[C@H]1CN2CC[C@H]1C[C@H]2[C@H](O/C=C/C=C/C=C/C=C/C=C/C=C/CCCCCCCCCC)c1ccnc2ccc(OC)cc12`, the EC50 in the experiment with Plasmodium falciparum was in the range of 7 to 20 µM.
Turning to `CCCCC/C=C\CCC(O)CCCCCCCC(=O)Nn1c(C)ccc1C` (configuration not stated), the “diameter of the inhibition zone (DIZ)” value in the experiment with Klebsiella pneumoniae is listed as 15 - 19 mm; in the experiment on Bacillus subtilis [2] it was 15 - 19 mm; in the experiment with Staphylococcus aureus [3], 15 - 19 mm; in the experiment with Escherichia coli [4] it was 15 - 19 mm; in the experiment on Candida albicans [7], 17 - 20 mm.
For `CCCCCC(O)/C=C\CCCCCCCc1ccc(CCCCCCC/C=C\C(O)CCCCC)o1` (configuration not stated), the “diameter of the inhibition zone (DIZ)” value in the experiment on Candida albicans [1] is 27 mm.
As for `C=C[C@H]1CN2CC[C@H]1C[C@H]2[C@H](O/C=C/C=C/CCCCCCCCCCCCCC)c1ccnc2ccc(OC)cc12`, in the experiment with Plasmodium falciparum, the EC50 lay in the range of 7 to 20 µM.
For `C=CCCCCCCCCC1=NNC2SCC(c3ccccc3)=NN12` (configuration not stated), the IC50 in the experiment with HeLa was 8.01 µM; in the experiment on MCF7, 10.3 µM; in the experiment with Hep 3B2, 7.4 µM.
As for `C=C[C@H]1CN2CC[C@H]1C[C@H]2[C@H](OCCCCCCCC/C=C\C/C=C\C/C=C\CC)c1ccnc2ccc(OC)cc12`, in the experiment on Plasmodium falciparum, the EC50 lay within 7 to 20 µM.
`C=CCCCCCCCCC(=O)n1nnc2ccccc21`: the zone of inhibition at 50 µg/disc in the experiment on Staphylococcus aureus [14] and in the experiment on Candida albicans [5] was 13 to 15 mm throughout.

Source of the values: ChEMBL document CHEMBL4130493, “An insight into the biological activities of heterocyclic-fatty acid hybrid molecules” (Eur J Med Chem, 2017).
